Among the data in PubChem BioAssay (NCI) are TGI values, retold here.

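Following 48 hours of exposure in 96-well plates, responses at five concentrations were used to interpolate endpoints linearly. Definition used: TGI = concentration required for complete inhibition of growth.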

Among the test systems are SF-295 CNS; PC-3 prostate; SN12C renal; SNB-75 CNS; U251 CNS; OVCAR-3 ovarian; SF-268 CNS; MALME-3M melanoma; HL-60(TB) leukemia; NCI-H23 lung.
Holding throughout (assay): DTP human tumour cell line panel, 48 h

Take `O=C(c1ccccc1)n1c2ccc(Br)cc2c2nc3ccccc3nc21`: the TGI in the experiment with SF-295 CNS, in the experiment with PC-3 prostate, in the experiment on SN12C renal, in the experiment with SNB-75 CNS, with U251 CNS and with OVCAR-3 ovarian was above 100 µM each time. Further, the TGI in the experiment on SF-268 CNS, in the experiment with MALME-3M melanoma, in the experiment with HL-60(TB) leukemia and in the experiment with NCI-H23 lung was above 100 µM throughout.

`CNc1nc(OC)c2c(n1)[n+](C)cn2C`: the TGI in the experiment on SF-295 CNS, with PC-3 prostate, with SN12C renal, with SNB-75 CNS, in the experiment on U251 CNS and in the experiment with OVCAR-3 ovarian was above 100 µM each time. The TGI in the experiment on SF-268 CNS, in the experiment on MALME-3M melanoma, with HL-60(TB) leukemia and in the experiment with NCI-H23 lung was above 100 µM in each case.

For the compound `Nc1nc2c(ccc3ccccc32)[nH]1`, the TGI with SF-295 CNS, in the experiment with PC-3 prostate, with SN12C renal, in the experiment with SNB-75 CNS, in the experiment with U251 CNS and in the experiment with OVCAR-3 ovarian was above 10 µM each time. Besides, the TGI in the experiment on SF-268 CNS, in the experiment with MALME-3M melanoma, in the experiment on HL-60(TB) leukemia and in the experiment on NCI-H23 lung was above 10 µM each time.

As for `COc1ccc2c(C=O)c3n(c(=O)c2c1OC)CCc1cc2c(cc1-3)OCO2`, the TGI in the experiment with SF-295 CNS, with PC-3 prostate, in the experiment on SN12C renal, in the experiment with SNB-75 CNS, in the experiment with U251 CNS and in the experiment on OVCAR-3 ovarian was above 100 µM throughout. For the same compound, the TGI in the experiment with SF-268 CNS, with MALME-3M melanoma, in the experiment on HL-60(TB) leukemia and in the experiment on NCI-H23 lung was above 100 µM each time.

For `CCCCCNC(=O)OC1CCn2c1nc1c2C(=O)C(C)=C(N2CC2)C1=O` (stereo not given), the TGI in the experiment on SF-295 CNS came to 2.69 µM; in the experiment on PC-3 prostate it was 2.39 µM; with SN12C renal, 3.27 µM; in the experiment on SNB-75 CNS, 2.69 µM; in the experiment with U251 CNS, 4.7 µM; in the experiment on OVCAR-3 ovarian it was 7.05 µM. In addition, the concentration for total growth inhibition (TGI) is 4.84 µM with SF-268 CNS, 4.27 µM in the experiment on MALME-3M melanoma, above 100 µM in the experiment with HL-60(TB) leukemia and 6.2 µM in the experiment with NCI-H23 lung.

As to `N=c1sc(N2CCOCC2)nn1CC(=O)c1ccccc1`, the TGI with SF-295 CNS, in the experiment on PC-3 prostate, in the experiment with SN12C renal, in the experiment with SNB-75 CNS, with U251 CNS and with OVCAR-3 ovarian was above 100 µM in each case. For the same compound, the TGI in the experiment with SF-268 CNS, in the experiment with MALME-3M melanoma, in the experiment on HL-60(TB) leukemia and with NCI-H23 lung was above 100 µM each time.

In the case of `CCN(CC)CCCNc1nnc(C)c2[nH]c3ccccc3c12`, the TGI is 62.5 µM in the experiment on SF-295 CNS; 45.2 µM in the experiment with PC-3 prostate; 43 µM with SN12C renal; 38.8 µM in the experiment on SNB-75 CNS; above 100 µM in the experiment with U251 CNS; 37.7 µM with OVCAR-3 ovarian. Also, the TGI worked out at 34.7 µM with SF-268 CNS, 29.3 µM in the experiment on MALME-3M melanoma, 27.4 µM in the experiment on HL-60(TB) leukemia and 38.8 µM with NCI-H23 lung.

With `CCOC(=O)c1c(SCCN(CC)CC)n(-c2ccccc2)c(=S)n(-c2ccccc2)c1=O`, the TGI was above 100 µM in the experiment on SF-295 CNS; 4.1 µM in the experiment with PC-3 prostate; 3.4 µM in the experiment on SN12C renal; 23.4 µM with SNB-75 CNS; 29.6 µM in the experiment on U251 CNS; 3.36 µM in the experiment with OVCAR-3 ovarian. Besides, the TGI with SF-268 CNS came out at 9.9 µM; in the experiment with MALME-3M melanoma it was 3.06 µM; in the experiment on HL-60(TB) leukemia, 3.61 µM; in the experiment on NCI-H23 lung it was 44.6 µM.

With `CN1Cc2c(ccc3c2OCO3)[C@@H]2[C@H](O)Cc3cc4c(cc3[C@@H]21)OCO4`, the TGI in the experiment on SF-295 CNS is 21.6 µM; in the experiment on PC-3 prostate, above 100 µM; in the experiment with SN12C renal, above 39.7 µM; with SNB-75 CNS, 7.64 µM; with U251 CNS, above 25.1 µM; in the experiment with OVCAR-3 ovarian it was above 100 µM. In addition, the TGI in the experiment with SF-268 CNS was above 26.5 µM; with MALME-3M melanoma, above 100 µM; in the experiment with HL-60(TB) leukemia, 4.36 µM; in the experiment with NCI-H23 lung, 12.8 µM.

In the case of `Cc1ccc(C(=O)C2CC3(CCC2(O)c2ccc(C)cc2)CC(=O)Nc2ccccc2C3=O)cc1` (stereo not given), the TGI was above 100 µM in the experiment with SF-295 CNS; above 100 µM with PC-3 prostate; above 100 µM with SN12C renal; 93.5 µM in the experiment with SNB-75 CNS; above 100 µM with U251 CNS; above 100 µM with OVCAR-3 ovarian. The TGI in the experiment with SF-268 CNS, in the experiment on MALME-3M melanoma, in the experiment on HL-60(TB) leukemia and in the experiment with NCI-H23 lung was above 100 µM each time.

On to `Nc1nc(Nc2cc(F)c(Cl)c(F)c2)cc(=O)[nH]1`, for which the TGI was above 100 µM in the experiment on SF-295 CNS; above 100 µM in the experiment with PC-3 prostate; above 100 µM with SN12C renal; 97.9 µM with SNB-75 CNS; above 100 µM with U251 CNS; above 100 µM with OVCAR-3 ovarian. Besides, the TGI in the experiment on SF-268 CNS, with MALME-3M melanoma, with HL-60(TB) leukemia and with NCI-H23 lung was above 100 µM each time.

Consider `O=C1Cc2c(-c3ccccc3)cc(-c3ccc(Cl)cc3)nc2-c2ccccc2N1`, for which the TGI was 23.7 µM with SF-295 CNS; above 57.7 µM in the experiment on PC-3 prostate; 16.9 µM with SN12C renal; 8.77 µM in the experiment on SNB-75 CNS; 10.5 µM with U251 CNS; 22.8 µM with OVCAR-3 ovarian. Further, the TGI with SF-268 CNS was 20 µM; with MALME-3M melanoma, above 34.4 µM; in the experiment on HL-60(TB) leukemia it was above 100 µM; in the experiment on NCI-H23 lung it was 17.8 µM.

Take `Clc1cc2ncn(C3CCCO3)c2cc1Cl` (stereo not given): the TGI in the experiment with SF-295 CNS, in the experiment on PC-3 prostate, in the experiment with SN12C renal, with SNB-75 CNS, with U251 CNS and with OVCAR-3 ovarian was above 100 µM throughout. Moreover, the TGI with SF-268 CNS, in the experiment on MALME-3M melanoma, with HL-60(TB) leukemia and in the experiment on NCI-H23 lung was above 100 µM throughout.

Turning to `CC(=O)CC(=O)N1CCOC1=O`, the TGI in the experiment with SF-295 CNS, in the experiment on PC-3 prostate, in the experiment with SN12C renal, with SNB-75 CNS, with U251 CNS and in the experiment with OVCAR-3 ovarian was above 10 µM each time. Further, the TGI with SF-268 CNS, in the experiment on MALME-3M melanoma, in the experiment on HL-60(TB) leukemia and in the experiment on NCI-H23 lung was above 10 µM each time.
